pEC50, pIC50: −log10 of the molar value. Where two headings read alike, the source gives them in different places.
How the values were obtained:
HCV replicon = HCV replicon assay (FRET or luciferase readout); format: cell-based
From the text: FRET Assay Preparation. To perform the HCV FRET screening assay, 96-well cell culture plates were used. The FRET peptide (Anaspec, Inc.) (Taliani et al., Anal. Biochem. 1996, 240, 60-67) contains a fluorescence donor, EDANS, near one end of the peptide and an acceptor, DABCYL, near the other end. The fluorescence of the peptide is quenched by […] resonance energy transfer (RET) between the donor and the acceptor, but as the NS3 protease cleaves the peptide the products are released from RET quenching and the fluorescence of the donor becomes apparent. The assay reagent was made as follows: 5X cell Luciferase cell culture lysis reagent from Promega (#E153A) diluted to 1X with dH2O, NaCl added to 150 mM final, the FRET peptide diluted to 20 µM final from a 2 mM stock.
To prepare plates, HCV replicon cells, with or without a Renilla luciferase reporter gene, were trypsinized and placed into each well of a 96-well plate with titrated test compounds added in columns 3 through 12; columns 1 and 2 contained a control compound (HCV protease inhibitor), and the bottom row contained cells without compound. The plates were then placed in a CO2 incubator at 37 °C.
Assays. Subsequent to addition of the test compounds described above (FRET Assay Preparation), at various times the plate was removed and Alamar blue solution (Trek Diagnostics, #00-100) was added per well as a measure of cellular toxicity. After reading in a Cytoflour 4000 instrument (PE Biosystems), plates were rinsed with PBS and then used for FRET assay by the addition of 30 ul of the FRET peptide assay reagent described above (FRET Assay Preparation) per well. The plate was then placed into the Cytoflour 4000 instrument which had been set to 340 excite/490 emission, automatic mode for 20 cycles and the plate read in a kinetic mode. Typically, the signal to noise using an endpoint analysis after the reads was at least three-fold. Alternatively, after Alamar blue reading, plates were rinsed with PBS, 50 ul of DMEM (high glucose) without phenol red was added and plates were then used for luciferase assay using the Promega Dual-Glo Luciferase Assay System.
Compound analysis was determined by quantification of the relative HCV replicon inhibition and the relative cytotoxicity values. To calculate cytoxicity values, the average Alamar Blue fluorescence signals from the control wells were set as 100% non-toxic. The individual signals in each of the compound test wells were then divided by the average control signal and multiplied by 100% to determine […]. To calculate the HCV replicon inhibition values, an average background value was obtained from the two wells containing the highest amount of HCV protease inhibitor at the end of the assay period. These numbers were similar to those obtained from naïve Huh-7 cells.
The background numbers were then subtracted from the average signal obtained from the control wells and this number was used as 100% activity. The individual signals in each of the compound test wells were then divided by the averaged control values after background subtraction and multiplied by 100% to determine percent activity. EC50 values for a protease inhibitor titration were calculated as the concentration which caused a 50% reduction in FRET or luciferase activity. The two numbers generated for the compound plate, percent cytoxicity and percent activity were used to determine compounds of interest for further analysis.

HCV NS5B = target: T1, HCV NS5B (Hepatitis C virus genotype 1b, UniProt Q9WMX2); assay: HCV NS5B RdRp enzyme assay (standard or modified); format: biochemical
T1 construct: The protein was expressed with an 18 amino acid C-terminal truncation to enhance the solubility; made in house; host or cells: E. coli BL21(DE3)
Procedure: HCV NS5B RdRp cloning, expression, and purification. The cDNA encoding the NS5B protein of HCV, genotype 1b, was cloned into the pET21a expression vector. The protein was expressed with an 18 amino acid C-terminal truncation to enhance the solubility. The E. coli competent cell line BL21(DE3) was used for expression of the protein. Cultures were grown at 37 °C for ~ 4 hours until the cultures reached an optical density of 2.0 at 600 nm. The cultures were cooled to 20 °C and induced with I mM IPTG. Fresh ampicillin was added to a final concentration of 50 µg/ml and the cells were grown overnight at 20 °C.
Cell pellets (3L) were lysed for purification to yield 15-24 mgs of purified NS5B. The lysis buffer consisted of 20 mM Tris-HCl, pH 7.4, 500 mM NaCl, 0.5% triton X-100, 1 mM DTT, 1mM EDTA, 20% glycerol, 0.5 mg/ml lysozyme, 10 mM MgCl2, 15 ug/ml deoxyribonuclease I, and Complete TM protease inhibitor tablets (Roche). After addition of the lysis buffer, frozen cell pellets were resuspended using a tissue homogenizer. To reduce the viscosity of the sample, aliquots of the lysate were sonicated on ice using a microtip attached to a Branson sonicator. The sonicated lysate was centrifuged at 100,000 x g for 1hr at 4 °C and filtered through a 0.2 µm filter unit (Corning).
The protein was purified using three sequential chromatography steps: Heparin sepharose CL-6B, polyU sepharose 4B, and Hitrap SP sepharose (Pharmacia). The chromatography buffers were identical to the lysis buffer but contained no lysozyme, deoxyribonuclease I, MgCl2 or protease inhibitor and the NaCl concentration of the buffer was adjusted according to the requirements for charging the protein onto the column. Each column was eluted with a NaCl gradient which varied in length from 5-50 column volumes depending on the column type. After the final chromatography step, the resulting purity of the enzyme is >90% based on SDS-PAGE analysis. The enzyme was aliquoted and stored at -80 °C.
Standard HCV NS5B RdRp enzyme assay. HCV RdRp genotype 1b assays were run in a final volume of 60 µl in 96 well plates (Costar 3912). The assay buffer is composed of 20 mM Hepes, pH 7.5, 2.5 mM KCI, 2.5 mM MgCl2, 1 mM DTT, 1.6 U RNAse inhibitor (Promega N2515), 0.1 mg/ml BSA (Promega R3961), and 2 % glycerol. All compounds were serially diluted (3-fold) in DMSO and diluted further in water such that the final concentration of DMSO in the assay was 2%. HCV RdRp genotype Ib enzyme was used at a final concentration of 28 nM. A polyA template was used at.6 nM, and a biotinylated oligo-dT12 primer was used at 180 nM final concentration. Template was obtained commercially (Amersham 27-4110). Biotinylated primer was prepared by Sigma Genosys. 3H-UTP was used at 0.6 µCi (0.29 µM total UTP). Reactions were initiated by the addition of enzyme, incubated at 30 °C for 60 min, and stopped by adding 25 µl of 50 mM EDTA containing SPA beads (4 µg/µl, Amersham RPNQ 0007). Plates were read on a Packard Top Count NXT after > 1hr incubation at room temperature.
Modified HCV NS5B RdRp enzyme assay. A modified enzyme assay was performed essentially as described for the standard enzyme assay except for the following: The biotinylated oligo dT12 primer was precaptured on streptavidin-coated SPA beads by mixing primer and beads in assay buffer and incubating at room temperature for one hour. Unbound primer was removed after centrifugation. The primer-bound beads were resuspended in 20 mM Hepes buffer, pH 7.5 and used in the assay at final concentrations of 20 nM primer and 0.67 µg/µl beads. Order of addition in the assay: enzyme (14 nM) was added to diluted compound followed by the addition of a mixture of template (0.2 nM), 3H-UTP (0.6 µCi, 0.29 µM), and primer-bound beads, to initiate the reaction; concentrations given are final. Reactions were allowed to proceed for 4 hours at 30° C.
IC50 values for compounds were determined using seven different [I]. […]

[1] = Hepatitis C virus, HCV replicon cells, FRET or luciferase activity, read-out: EC50
[2] = HCV NS5B RdRp enzyme, genotype 1b, read-out: IC50

T1 sequence (Q9WMX2 2420-2992): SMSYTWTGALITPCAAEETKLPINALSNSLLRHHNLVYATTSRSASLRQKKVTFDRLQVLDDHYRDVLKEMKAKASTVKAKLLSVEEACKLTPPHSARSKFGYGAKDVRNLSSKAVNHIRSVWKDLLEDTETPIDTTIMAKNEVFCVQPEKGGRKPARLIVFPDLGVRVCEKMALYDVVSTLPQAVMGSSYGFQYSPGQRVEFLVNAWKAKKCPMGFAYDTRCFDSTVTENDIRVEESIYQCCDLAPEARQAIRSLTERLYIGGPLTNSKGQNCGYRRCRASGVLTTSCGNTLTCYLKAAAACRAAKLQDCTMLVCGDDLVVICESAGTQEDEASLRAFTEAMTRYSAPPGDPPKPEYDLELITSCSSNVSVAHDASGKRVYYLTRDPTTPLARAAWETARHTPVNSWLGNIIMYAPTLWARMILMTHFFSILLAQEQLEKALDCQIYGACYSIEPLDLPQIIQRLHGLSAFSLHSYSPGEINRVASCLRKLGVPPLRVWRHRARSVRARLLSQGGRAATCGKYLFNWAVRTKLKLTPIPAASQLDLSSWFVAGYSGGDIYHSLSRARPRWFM

SMILES | pEC50 (HCV replicon; [1]) | pIC50 (HCV NS5B; [2]) | pEC50 (HCV replicon; Hepatitis C virus) | other results
CCOC(=O)c1c(C)nn(CC)c1C1=Cc2cc(OC)ccc2-c2c(C3CCCCC3)c3ccc(C(=O)NS(=O)(=O)C(C)C)cc3n2C1 | < 6.30 | 6.30 to 9.00 | – | –
CCn1nc(C)c(C2=Cc3cc(OC)ccc3-c3c(C4CCCCC4)c4ccc(C(=O)NS(=O)(=O)C(C)C)cc4n3C2)c1C(=O)N1CCOCC1 | 6.30 to 9.00 | 6.30 to 9.00 | – | –
COc1ccc2c(c1)C=C(c1c(C(=O)N3C[C@@H](C)N(C)[C@@H](C)C3)c(C(C)C)nn1C)Cn1c-2c(C2CCCCC2)c2ccc(C(=O)NS(=O)(=O)C(C)C)cc21 | 6.30 to 9.00 | 6.30 to 9.00 | – | –
COc1ccc2c(c1)C=C(c1c(C(=O)N3C4CCC3CN(C)C4)nnn1C(C)C)Cn1c-2c(C2CCCCC2)c2ccc(C(=O)NS(=O)(=O)N(C)C)cc21 | – | – | 6.30 to 9.00 | pIC50 (HCV NS5B): 6.30 to 9.00
COc1ccc2c(c1)C=C(c1c(C(=O)N3CCN(C)CC3)cnn1CC(F)(F)F)Cn1c-2c(C2CCCCC2)c2ccc(C(=O)NS(=O)(=O)C(C)C)cc21 | 6.30 to 9.00 | 6.30 to 9.00 | – | –
CCn1nc(C)c(C2=Cc3cc(OC)ccc3-c3c(C4CCCCC4)c4ccc(C(=O)NS(=O)(=O)C(C)C)cc4n3C2)c1C(=O)N1CCN(C)CC1 | 6.30 to 9.00 | 6.30 to 9.00 | – | –
CCOC(=O)c1cnn(CC)c1C1=Cc2cc(OC)ccc2-c2c(C3CCCCC3)c3ccc(C(=O)OC(C)(C)C)cc3n2C1 | < 6.30 | < 6.30 | – | –
COc1ccc2c(c1)C=C(c1c(C(=O)N3C4CCCC3COC4)cnn1C(C)C)Cn1c-2c(C2CCCCC2)c2ccc(C(=O)NS(=O)(=O)C(C)C)cc21 | – | – | 6.30 to 9.00 | pIC50 (HCV NS5B): 6.30 to 9.00
COc1ccc2c(c1)C=C(c1c(C(=O)N3C[C@@H](C)N(C)[C@@H](C)C3)nnn1C(C)C)Cn1c-2c(C2CCCCC2)c2ccc(C(=O)NS(=O)(=O)N(C)C)cc21 | 6.30 to 9.00 | 6.30 to 9.00 | – | –
COC[C@@H]1CN(C(=O)c2c(C)nn(C)c2C2=Cc3cc(OC)ccc3-c3c(C4CCCCC4)c4ccc(C(=O)NS(=O)(=O)C(C)C)cc4n3C2)CCO1 | 6.30 to 9.00 | 6.30 to 9.00 | – | –
COc1ccc2c(c1)C=C(c1c(C(=O)N3C4CCC3CN(C)C4)c(C)nn1C(C)C)Cn1c-2c(C2CCCCC2)c2ccc(C(=O)NS(=O)(=O)C(C)C)cc21 | – | – | 6.30 to 9.00 | pIC50 (HCV NS5B): 6.30 to 9.00
CCn1ncc(C(=O)N2C[C@@H](C)O[C@@H](C)C2)c1C1=Cc2cc(OC)ccc2-c2c(C3CCCCC3)c3ccc(C(=O)NS(=O)(=O)C(C)C)cc3n2C1 | 6.30 to 9.00 | 6.30 to 9.00 | – | –
COc1ccc2c(c1)C=C(c1c(C(=O)N3CC4CC3CO4)cnn1C(C)C)Cn1c-2c(C2CCCCC2)c2ccc(C(=O)NS(=O)(=O)C(C)C)cc21 (centres unmarked) | – | 6.30 to 9.00 | 6.30 to 9.00 | –
COc1ccc2c(c1)C=C(c1c(C(=O)N3C[C@@H](C)O[C@@H](C)C3)ncn1C(C)C)Cn1c-2c(C2CCCCC2)c2ccc(C(=O)NS(=O)(=O)C(C)C)cc21 | 6.30 to 9.00 | 6.30 to 9.00 | – | –
CCn1ncc(C(=O)N2C[C@@H](C)N(C)[C@@H](C)C2)c1C1=Cc2cc(OC)ccc2-c2c(C3CCCCC3)c3ccc(C(=O)NS(=O)(=O)C(C)C)cc3n2C1 | 6.30 to 9.00 | 6.30 to 9.00 | – | –
CCn1nc(C)c(C(=O)N2CC3CCC(C2)N3C)c1C1=Cc2cc(OC)ccc2-c2c(C3CCCCC3)c3ccc(C(=O)NS(=O)(=O)C(C)C)cc3n2C1 | – | – | 6.30 to 9.00 | –
COc1ccc2c(c1)C=C(c1c(C(=O)N3CCOCC3)c(C(C)C)nn1C)Cn1c-2c(C2CCCCC2)c2ccc(C(=O)NS(=O)(=O)C(C)C)cc21 | 6.30 to 9.00 | 6.30 to 9.00 | – | –
CCn1nc(C)c(C(=O)N2C[C@@H](C)O[C@@H](C)C2)c1C1=Cc2cc(OC)ccc2-c2c(C3CCCCC3)c3ccc(C(=O)NS(=O)(=O)N(C)C)cc3n2C1 | 6.30 to 9.00 | 6.30 to 9.00 | – | –
COc1ccc2c(c1)C=C(c1c(C(=O)N3CC4CC3CO4)cnn1CC(F)(F)F)Cn1c-2c(C2CCCCC2)c2ccc(C(=O)NS(=O)(=O)C(C)C)cc21 (centres unmarked) | – | 6.30 to 9.00 | 6.30 to 9.00 | –
CCn1ncc(C(=O)N2CC3CCC(C2)O3)c1C1=Cc2cc(OC)ccc2-c2c(C3CCCCC3)c3ccc(C(=O)NS(=O)(=O)C(C)C)cc3n2C1 | – | – | 6.30 to 9.00 | –
COc1ccc2c(c1)C=C(c1nn(C(C)C)c(C)c1C(=O)N1C[C@@H](C)O[C@@H](C)C1)Cn1c-2c(C2CCCCC2)c2ccc(C(=O)NS(=O)(=O)C(C)C)cc21 [drawing 151] | 6.30 to 9.00 | – | – | –
COc1ccc2c(c1)C=C(c1nn(C(C)C)c(C)c1C(=O)N1C[C@@H](C)O[C@@H](C)C1)Cn1c-2c(C2CCCCC2)c2ccc(C(=O)NS(=O)(=O)C(C)C)cc21 [drawing 156] | – | – | – | pEC50 (HCV replicon; HCV replicon cells, FRET or luciferase activity, read-out: EC50): 6.30 to 9.00
CCn1nc(C)c(C(=O)N2CCO[C@H](COC)C2)c1C1=Cc2cc(OC)ccc2-c2c(C3CCCCC3)c3ccc(C(=O)NS(=O)(=O)C(C)C)cc3n2C1 | 6.30 to 9.00 | – | – | –
CCn1ncc(C(=O)N2C3CCCC2COC3)c1C1=Cc2cc(OC)ccc2-c2c(C3CCCCC3)c3ccc(C(=O)NS(=O)(=O)C(C)C)cc3n2C1 | – | – | 6.30 to 9.00 | –
CCn1nc(C)c(C(=O)N2C[C@@H](C)N(C)[C@@H](C)C2)c1C1=Cc2cc(OC)ccc2-c2c(C3CCCCC3)c3ccc(C(=O)NS(=O)(=O)C(C)C)cc3n2C1 | 6.30 to 9.00 | – | – | –
COc1ccc2c(c1)C=C(c1c(C(=O)N3CC4CCC(C3)O4)c(C)nn1C(C)C)Cn1c-2c(C2CCCCC2)c2ccc(C(=O)NS(=O)(=O)C(C)C)cc21 | – | – | 6.30 to 9.00 | –

Source: patent EP2396329B1, “COMPOUNDS FOR THE TREATMENT OF HEPATITIS C” (priority 2009, dated 2010)
